Measurements reported in patent US20070037785A1, “Novel dipeptidyl peptidase IV inhibitors used for functionally influencing different cells and treating immunological, infammatory, neuronal, and other diseases” (priority 2003, published 2007).
Where two headings read alike, the source gives them in different places.

Biological target: dipeptidyl peptidase IV (Homo sapiens, UniProt P27487)
Assay: biochemical
[1] = values without "*" = IC-50, read-out: IC50DPIV
[2] = values marked with "*" are ID50 values, read-out: IC50DPIV, values marked with "*" = ID50

dipeptidyl peptidase IV, sequence (P27487 whole entry, species assumed): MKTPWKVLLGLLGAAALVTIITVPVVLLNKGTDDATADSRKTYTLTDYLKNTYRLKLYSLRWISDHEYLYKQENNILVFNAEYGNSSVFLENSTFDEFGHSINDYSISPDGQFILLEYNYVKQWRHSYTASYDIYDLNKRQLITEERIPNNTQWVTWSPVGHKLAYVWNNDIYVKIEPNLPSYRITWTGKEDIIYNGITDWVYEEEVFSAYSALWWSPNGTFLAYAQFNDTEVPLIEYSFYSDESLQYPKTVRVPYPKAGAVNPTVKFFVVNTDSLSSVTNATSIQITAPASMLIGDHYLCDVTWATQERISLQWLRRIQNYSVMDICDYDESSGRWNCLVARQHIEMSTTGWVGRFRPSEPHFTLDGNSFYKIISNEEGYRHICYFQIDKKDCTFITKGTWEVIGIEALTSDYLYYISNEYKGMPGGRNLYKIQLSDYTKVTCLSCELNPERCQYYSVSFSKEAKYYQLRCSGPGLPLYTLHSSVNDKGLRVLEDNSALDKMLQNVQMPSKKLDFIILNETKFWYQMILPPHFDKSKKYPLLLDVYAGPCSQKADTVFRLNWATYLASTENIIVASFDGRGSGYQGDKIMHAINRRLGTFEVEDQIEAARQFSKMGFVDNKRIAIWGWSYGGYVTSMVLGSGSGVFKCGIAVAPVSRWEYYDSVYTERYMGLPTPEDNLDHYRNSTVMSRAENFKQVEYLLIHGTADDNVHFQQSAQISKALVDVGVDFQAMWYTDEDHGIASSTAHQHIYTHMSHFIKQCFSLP

SMILES	IC50 [1] [µM]	IC50 [2] [µM]
COc1cc(Br)ccc1OCC(=O)N/N=C/c1cc(O)c(O)c(Br)c1Br [D10.013]	10.2	–
O=C(COc1cccc(Br)c1)N/N=C/c1cc(O)c(O)c(Br)c1Br [D10.014]	11.4	–
Brc1cccc(/C=N/Nc2nnc3c(n2)[nH]c2ccccc23)c1 [D10.015]	12.2	–
COc1ccc(/C=N/NC(=O)c2cc(O)c(O)c(O)c2)cc1COc1cc(C)c(Cl)c(C)c1 [D10.016]	12.3	–
COc1ccccc1/C=N/NC(=O)c1cccc([N+](=O)[O-])c1 [D10.017]	12.3	–
O=C(Cn1c2ccccc2c(=O)c2ccccc21)NN=Cc1cc(Br)c(O)c(Br)c1 [D10.018]	12.4	–
COc1c(OC(C)=O)ccc(/C=N/NC(=O)CNc2cccc(C)c2)c1[N+](=O)[O-] [D10.019]	12.7	–
O=C(CCCCC(=O)N/N=C/c1ccccc1[N+](=O)[O-])N/N=C/c1ccccc1[N+](=O)[O-] [D10.020]	12.8	–
Cc1cccc(C(=O)Oc2c(Br)cc(Br)cc2/C=N/NC(=O)CNC(=O)c2ccc(Cl)cc2)c1 [D10.021]	13.2	–
C/C(=N\NC(=O)CSCc1ccccc1Br)c1ccc(I)cc1 [D10.022]	13.2	–
CCOc1cc(/C=N/NC(=O)c2cc(C)n[nH]2)ccc1O [D10.023]	13.6	–
CCOc1cc(/C=N/NC(=O)c2cc(C)oc2C)ccc1O [D10.025]	16.2	–
O=C(N/N=C/c1ccc(-c2ccc(Cl)cc2)o1)/C(=C/c1ccc([N+](=O)[O-])cc1)NC(=O)c1ccccc1 [D10.026]	16.4	–
CCOc1cc(/C=N\NC(=O)c2cnccn2)ccc1O [D10.027]	16.7	–
O=C(N/N=C/c1ccc(OC(=O)c2ccco2)c([N+](=O)[O-])c1)/C(=C\c1cccs1)NC(=O)c1ccccc1 [D10.028]	16.7	–
O=C(N/N=C/c1cc([N+](=O)[O-])cc([N+](=O)[O-])c1O)/C(=C\c1cccs1)NC(=O)c1ccccc1 [D10.029]	17.5	–
Cc1ccc(OCC(=O)N/N=C\c2ccc(O)c([N+](=O)[O-])c2)c([N+](=O)[O-])c1 [D10.030]	17.8	–

SMILES	IC50 [1] [µM]	IC50 [2] [µM]
COc1ccc2ccccc2c1/C=N/NC(=O)c1cc2ccccc2cc1O [D10.031]	17.8	–
O=C(CNc1ccc2ccccc2c1)N/N=C1/C(=O)Nc2ccc([N+](=O)[O-])cc21 [D10.032]	18.2	–
COc1cc(/C=N/NC(=O)COc2ccc(C(C)(C)CC(C)(C)C)cc2)cc([N+](=O)[O-])c1O [D10.033]	18.9	–
CCOc1cc(/C=N/NC(=O)c2cc(O)c(O)c(O)c2)ccc1O [D10.034]	19.1	–
CCOc1cc(/C=N/NC(=O)COc2ccc(Cl)cc2)ccc1OC(=O)c1ccc(Br)cc1 [D10.035]	20	–
O=C(Cn1nnc(-c2ccc(F)cc2)n1)N/N=C/c1ccc(-c2ccc3c(c2)COC3=O)o1 [D10.036]	20.3	–
O=C(COc1cccc([N+](=O)[O-])c1)N/N=C/c1ccc(O)c([N+](=O)[O-])c1 [D10.044]	24.4	–
COc1cc(Br)c(OCC(=O)N/N=C/c2cc(Br)c(O)c(O)c2Br)c(Br)c1 [D10.046]	29.2	–
CN(/N=C/c1sc(=O)[nH]c1Cl)c1ccccc1 [D10.057]	32.4	–
COc1cc(Br)ccc1OCC(=O)N/N=C/c1cc(Br)c(O)c(O)c1Br [D10.067]	45	–
O=C(N/N=C/c1cc([N+](=O)[O-])cc([N+](=O)[O-])c1O)/C(=C/c1ccc([N+](=O)[O-])cc1)NC(=O)c1ccccc1 [D10.069]	45.7	–
CCN(CC)C(=O)C1CCCN(c2ccc([N+](=O)[O-])cc2/C=N/NC(=O)c2cccc([N+](=O)[O-])c2)C1 (stereo not drawn) [D10.075]	54	–
Cc1ccc(/C=N/NC(=O)c2cccc(I)c2)o1 [D10.085]	57.7	–
COc1ccc(C(=O)N/N=C/c2cc(O)c(O)c(Br)c2Br)cc1 [D10.086]	57.8	–
O=C(N/N=C/c1cc(Br)c(O)c(Br)c1O)/C(=C\c1ccc2c(c1)OCO2)NC(=O)c1ccccc1 [D10.089]	60	–
Cc1cccc(NCC(=O)N/N=C/c2cc(Br)c(O)c(O)c2Br)c1 [D10.094]	–	65.5
O=C(COc1ccc2ccccc2c1)N/N=C/c1c(Br)cc(Br)c(O)c1Br [D10.095]	69.6	–

Next, values leading:

IC50 [1] [µM]	IC50 [2] [µM]	SMILES
20.4	–	CCN(CC)c1ccc(/C=C(/NC(=O)c2ccccc2)C(=O)N/N=C/c2c(C)c(Br)c(O)c(Br)c2O)cc1 [D10.037]
20.5	–	CC(/C=N/NC(=O)CNc1ccc(C)cc1)=C\c1ccc(/C=C(C)/C=N/NC(=O)CNc2ccc(C)cc2)cc1 [D10.038]
20.8	–	CCOc1cc(/C=N/NC(=O)c2cc(C3CC3)[nH]n2)ccc1O [D10.039]
20.9	–	O=C(N/N=C/c1ccc([N+](=O)[O-])o1)c1ccccc1I [D10.040]
21.8	–	COc1cc(/C=N/NC(=O)c2ccco2)cc(OC)c1OC(C)=O [D10.041]
24.1	–	O=C(N/N=C/c1cc(Br)ccc1OC(=O)c1ccco1)/C(=C\c1cccs1)NC(=O)c1ccccc1 [D10.042]
24.2	–	O=C(N/N=C\c1cccc(OC(=O)c2ccc([N+](=O)[O-])cc2)c1)/C(=C/c1ccc2c(c1)OCO2)NC(=O)c1ccccc1 [D10.043]
28.8	–	Cc1ccc(/C=N/NC(=O)c2ccc(NC(=O)c3cccc([N+](=O)[O-])c3)cc2)o1 [D10.045]
29.8	–	C/C(=N\NC(=O)c1cc(C)n[nH]1)c1ccc(-c2ccccc2)cc1 [D10.047]
31.9	–	O=C(COc1cccc(Cl)c1)N/N=C/c1ccc(O)c([N+](=O)[O-])c1 [D10.049]
32.1	–	COc1cc(Br)cc(Br)c1OCC(=O)N/N=C/c1ccc(O)c([N+](=O)[O-])c1 [D10.050]
33.9	–	CN(C)c1ccc(/C=C(\NC(=O)c2ccccc2)C(=O)N/N=C/c2cc(/N=N/c3ccccc3)ccc2O)cc1 [D10.051]
32.9	–	CC(=O)Oc1ccc(-c2ccc(/C=N/NC(=O)C34CC5CC(C3)CC(c3ccc(C)cc3)(C5)C4)cc2)cc1 [D10.052]
32.9	–	COc1ccc(/C(C)=N/NC(=O)CNc2ccc3ccccc3c2)cc1OC [D10.053]
33.3	–	O=C(N/N=C/c1cccc(Oc2ccccc2)c1)c1cc(Br)cc(Br)c1O [D10.054]
33.4	–	C/C(=N\NC(=O)/C(=C\c1ccc(F)cc1)NC(=O)c1ccccc1)c1ccccc1O [D10.055]
33.5	–	O=C(N/N=C/c1c(O)ccc2ccccc12)c1cc(-c2ccc(-c3ccccc3)cc2)n[nH]1 [D10.056]
34.2	–	COc1ccc(/C=N/N=C2\NC(=O)C(Cc3cccc(C(F)(F)F)c3)S2)cc1 (stereo not drawn) [D10.058]
36.3	–	O=C(N/N=C/c1cccc(I)c1)c1cc(Br)ccc1O [D10.060]
39.2	–	CN(C)c1ccc(/C=C(\NC(=O)c2ccccc2)C(=O)N/N=C/c2ccccc2[N+](=O)[O-])cc1 [D10.061]
39.7	–	O=C(N/N=C/c1cc(I)cc(I)c1O)c1ccc(NC(=O)c2ccccc2)cc1 [D10.062]
40.4	–	COc1ccc(C(=O)N/N=C/c2ccc(Cl)cc2Cl)cc1 [D10.063]
41	–	Cc1ccc(C)n1-c1cccc(C(=O)N/N=C/c2cc(Br)c(O)c(Br)c2)c1 [D10.065]
42	–	COc1cc(/C=N/NC(=O)CNC(=O)c2ccc(Cl)cc2)ccc1OC(=O)c1cccc(F)c1 [D10.066]
45.6	–	COc1ccc(Br)cc1/C=N/NC(=O)COc1ccc(C)cc1[N+](=O)[O-] [D10.068]

IC50 [1] [µM]	IC50 [2] [µM]	SMILES
46.2	–	COc1cc(/C=N/NC(=O)/C(=C/c2ccc(N(C)C)cc2)NC(=O)c2ccccc2)cc(Br)c1O [D10.070]
46.7	–	Cc1cccc(C(=O)N/N=C/c2c(O)ccc3ccccc23)c1 [D10.072]
52.3	–	O=C(Cn1c2ccccc2c(=O)c2ccccc21)N/N=C/c1cc(I)c(O)c([N+](=O)[O-])c1 [D10.073]
52.9	–	CC(C)(C)CC(C)(C)c1ccc(OCC(=O)N/N=C/c2ccc(OC(=O)c3ccco3)c([N+](=O)[O-])c2)cc1 [D10.074]
55	–	O=C(N/N=C/C=C/c1ccccc1)c1cc(C2CC2)n[nH]1 [D10.076]
55.2	–	Cc1ccc(Cn2cccc2/C=N/NC(=S)Nc2ccc(C)c(C)c2)cc1 [D10.077]
55.3	–	CCOc1cccc(/C=N/NC(=O)c2cc(-c3ccc(F)cc3)n[nH]2)c1O [D10.078]
55.4	–	COc1c(O)ccc(/C=N/NC(=O)COc2c(Br)cc(Br)cc2Br)c1[N+](=O)[O-] [D10.079]
55.7	–	C/C(=N\NC(=O)c1cc(C(C)(C)C)n[nH]1)c1ccc(Cl)cc1 [D10.081]
55.9	–	COc1cc(C(=O)Oc2c(Br)cc(Br)cc2/C=N/NC(=O)COc2ccc(C)cc2)cc(OC)c1OC [D10.082]
56.3	–	CCOc1ccc(/C=N/NC(=O)c2cc(-c3c(OC)ccc4ccccc34)n[nH]2)cc1 [D10.083]
57	–	Cc1cccc(C)c1OCC(=O)N/N=C/c1cc(Br)cc(Br)c1OC(=O)c1ccccc1I [D10.084]
58.7	–	COc1cc(/C=N/NC(=O)c2ccccc2OC(C)C)ccc1O [D10.087]
58.8	–	Cc1ccccc1SCC(=O)N/N=C/c1ccc(C)c([N+](=O)[O-])c1 [D10.088]
62.1	–	O=C(N/N=C\c1ccc(OCc2ccccc2Cl)cc1)c1ccc2c(c1)OCO2 [D10.090]
62.2	–	N#Cc1ccc(/C=N/NC(=O)c2ccccc2[N+](=O)[O-])cc1 [D10.091]
–	63.5	O=C(Cn1c2ccccc2c(=O)c2ccccc21)N/N=C/c1ccc(O)c(O)c1 [D10.092]
63.5	–	COc1cc(/C=N/NC(=O)CNC(=O)c2cccc(F)c2)ccc1OC(=O)c1ccccc1Cl [D10.093]
–	74.7	CC(C)(C)c1cc2oc3c(c2c(/C=N/NC(=O)c2ccc(O)cc2O)c1O)CCCC3 [D10.097]
81.4	–	N#Cc1ccc(/C=N/NC(=O)c2cc([N+](=O)[O-])ccc2O)cc1 [D10.098]
84.9	–	CCOc1cc(/C=N/NC(=O)c2cc(-c3ccco3)n[nH]2)ccc1O [D10.099]
–	91	COc1cc(/C=N/NC(=O)c2ccc(NC(=O)c3ccccc3C)cc2)cc(OC)c1OC [D10.100]
91.3	–	COc1ccc(OCC(=O)N/N=C\C(C)=C/c2ccc(/C=C(C)\C=N/NC(=O)COc3ccc(OC)cc3Br)cc2)c(Br)c1 [D10.101]
–	91.9	O=C(CNC(=O)c1cccc(F)c1)N/N=C/c1cc(Br)cc(Br)c1OC(=O)c1cccc(Br)c1 [D10.102]
93.3	–	O=C(CNC(=O)C(c1ccccc1)c1ccccc1)N/N=C/c1ccc(OC(=O)c2cccc(F)c2)cc1 [D10.103]
